{"source": "patent US7132441B2", "about": "“Immunosuppressive effects of administration of a cyclooxygenase-2 inhibitor and a 5-lipoxygenase inhibitor” (G.D. Searle & Co., priority 1996, dated 2006)", "test_system": "B10.Br mouse tailskin grafted on male C57BL/10 mice", "test": "Skin graft rejection time (transplantation and evaluation of graft rejection)", "type": "in vivo", "details": "i.p. from day of grafting until rejection, Example 2 30 mpk/day q.d., Example 3 10 mpk/day q.d.; for Skin Graft Rejection Time, Ex. #1 Rejection: experiment #1; for Skin Graft Rejection Time, Ex. #3 Rejection: experiment #3", "excerpt": "Transplantation and Evaluation of Graft Resection\nThe method of skin grafting used has been previously described [D. Steinmuller, Skin Grafting. Surgical Techniques in Immunology, Methods Enzymol. […] Briefly, a tailskin from an 8–12 week old male B10.Br mouse was removed and stored in cold saline. Male C57BL/10 mice were anesthetized, and their backs were shaved. The backs were scrubbed with alcohol, and a 1 cm^2 piece of skin was removed. A similar size piece of skin was cut from the tailskin of the B10.Br mouse and placed in the excised area on the C57BL/10 animal's back. A petroleum jelly coated bandage was placed over the graft and held in place by a single surgical staple. Compounds were prepared as a suspension in 0.5% methylcellulose (Sigma, St. Louis, Mo.), and 0.025% Tween® 20 (Sigma). The compounds were administered by i.p. injection in a volume of 0.1 ml beginning on the day of skin grafting and continuing until transplant rejection. […] Compounds were administered alone or as combinations of a COX-2 and 5-LO inhibitor. Bandages were left in place until 8 days post grafting. At that time they were removed, and the grafts were observed daily or signs of rejection. Rejection was determined by complete blackening or scabbing of the grafted skin."}
{"molecule": "CC(C#Cc1ccc(Oc2ccc(F)cc2)o1)N(O)C(N)=O", "note": "(stereo not shown) [Example 3, N′-[3-[5-(4-Fluorophenoxy)furyl-2-yl]-1-methyl-2-propynyl]-N′-hydroxyurea]", "values": [{"measurement": "Skin Graft Rejection Time, Ex. #1 Rejection", "value": 15.0, "unit": "days"}, {"measurement": "Skin Graft Rejection Time, Ex. #3 Rejection", "value": 17.0, "unit": "days"}]}
{"molecule": "COc1ccc(-c2cc(C(F)F)nn2-c2ccc(S(N)(=O)=O)cc2)cc1F", "note": "[Example 2, 4-[5-(3-Fluoro-4-methoxyphenyl)-3-(difluoromethyl)-1H-pyrazol-1-yl]benzenesulfonamide]", "values": [{"measurement": "Skin Graft Rejection Time, Ex. #1 Rejection", "value": 15.7, "unit": "days"}, {"measurement": "Skin Graft Rejection Time, Ex. #3 Rejection", "value": 17.3, "unit": "days"}]}
